{"source": "paper PMC7707423", "about": "(Acta biomaterialia, 2017)", "key": {"[1]": {"test_system": "chondrocytes", "test": "GAG synthesis by encapsulated chondrocytes", "type": "cell-based, Bos taurus", "settings": "control (empty vector) chondrocytes; 0-100 μM KPLHALL, 30 days"}, "[2]": {"test_system": "type II collagen", "test": "Immunohistochemistry of constructs for type II collagen", "type": "cell-based, Bos taurus", "settings": "particularly at higher concentrations of KPLHALL"}, "[3]": {"molecular_target": "IGF-I (Homo sapiens, UniProt P05019)", "sequence (P05019 49-118 limits assumed)": "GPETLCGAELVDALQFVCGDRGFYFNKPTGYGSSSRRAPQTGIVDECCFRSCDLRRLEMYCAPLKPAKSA", "test": "Surface plasmon resonance, IGF-I binding to alginate materials", "settings": "SPR"}, "[4]": {"test_system": "chondrocytes", "test": "Hydroxyproline", "type": "cell-based, Bos taurus", "settings": "10, 33 and 100 μM binding sites; p<0.001 by 2-way ANOVA"}, "[5]": {"test_system": "IGF-I", "test": "Immunohistochemistry / retention of IGF-I in chondrocyte constructs", "type": "cell-based, Bos taurus", "settings": "100 μM of binding sites"}, "[6]": {"molecular_target": "IGFBP-5 (Homo sapiens) (UniProt P24593)", "sequence (P24593 21-272)": "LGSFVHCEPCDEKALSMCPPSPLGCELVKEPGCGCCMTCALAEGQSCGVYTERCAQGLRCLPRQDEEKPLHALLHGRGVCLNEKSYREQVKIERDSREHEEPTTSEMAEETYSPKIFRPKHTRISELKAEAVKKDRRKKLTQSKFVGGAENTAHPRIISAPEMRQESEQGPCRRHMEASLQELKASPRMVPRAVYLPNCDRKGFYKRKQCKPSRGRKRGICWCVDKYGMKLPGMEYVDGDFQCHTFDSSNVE", "settings": "cited from earlier work"}, "[7]": {"molecular_target": "mini-IGFBP-5 binding pocket (Homo sapiens) (UniProt P24593)", "sequence (P24593 60-112)": "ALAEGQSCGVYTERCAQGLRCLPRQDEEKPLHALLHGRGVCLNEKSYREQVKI", "settings": "cited from earlier work"}}, "data": [{"substance": "GGG-KPLALL (KPLHALL) [KPLHALL alginate]", "values": [{"measurement": "GAG synthesis enhancement (maximum of steady state, normalized to alginate 0 μM)", "setting": "[1]", "result": 1.6, "unit": "fold"}, {"measurement": "type II collagen immunostaining at day 30", "setting": "[2]", "result": "robust staining for type II collagen"}, {"measurement": "KD shift of KPLHALL alginate compared to alginate", "setting": "[3]; KD 50 nM vs 513 nM", "result": 10, "unit": "times"}, {"measurement": "enhancement of binding affinity for IGF-I by KPLHALL modification", "setting": "[3]; vs unmodified alginate", "result": "more than 10 fold"}, {"measurement": "effect on HYPRO of binding-site concentration", "setting": "[4]", "result": "greater in concentrations of 10, 33 and 100 μM binding sites"}, {"measurement": "IGF-I immunostaining at day 30", "setting": "[5]", "result": "highest immunolocalization of IGF-I"}]}, {"substance": "IGF-I (from UniProt P05019)", "values": [{"measurement": "Kd", "setting": "[6]", "result": 3.7, "unit": "nM"}, {"measurement": "Kd", "setting": "[7]", "result": 37, "unit": "nM"}]}]}
